System: yeast genes (expressed mRNA)
Test: DNA chip measurement of expressed mRNA of yeast genes after culture with a toxic chemical substance
Type: cell-based, Saccharomyces cerevisiae S288C
Conditions: for level of expressed mRNA in the presence of chemical substance / level in the absence of chemical substance: cultured two hours with the chemical substance; for The level of expressed mRNA in the presence of chemical substance/The level of expressed mRNA in the absence of chemical substance: cultured two hours with substance
Procedure: Yeast (Saccharomyces cerevisiae S288C (a SUC2mal mel gap2 CUP1)) were cultured at 25° C. on YPD medium (yeast extract 1%, polypeptone 2%, glucose 2%). One of toxic chemical substances was added to the cell at logarithmic growth phase, and the cell was further cultured for two hours. Cell was cultured without any chemical substance in the same condition, and was used as a control. Concentrations of the chemical substances were defined to inhibit the growth of the yeast but not lead to death.
After the completion of cultivation, the culture was centrifuged to collect the cells. To the cells, sodium acetate buffer (50 mM sodium acetate, 10 mM EDTA, 1% SDS) was added, and the mixture was shaken at 65° C. for five minutes, followed by returning to room temperature, and obtaining the supernatant, which procedure was repeated two times. To the supernatant, ½ amount of a solution of phenol/chloroform (1:1) was added, and the mixture was centrifuged to give a supernatant, an equal amount of chloroform was added, and the mixture was centrifuged to give a supernatant. To the supernatant, an equal amount of isopropanol containing 0.3 M sodium acetate was added, and the mixture was allowed to stand at room temperature for 30 minutes, after which the mixture was centrifuged to give sediment of the whole RNAs. Seventy % ethanol was added to the sediment, and the mixture was again centrifuged to give sediment, which was then dried and dissolved in water. mRNA was isolated from the whole RNAs as followings. In view of the fact that a poly A chain is attached to the 3′ terminus of mRNA, a polynucleotide having a poly T structure which was immobilized on the surface of latex beads was used to trap the mRNA, and then the mRNA was washed and eluted with spine column (Oligotex-dT30<Super>mRNA Purification Kit, Takara). Reverse transcription of the mRNA was conducted with a reverse transcriptase (Super Script II Reverse Transcriptase; catalogue No. 18064-014, GibcoBRL) using fluorescence-labeled nucleotides to give cDNAs that were introduced with Cy3-dUTP or Cy5-dUTP during the reverse transcription.
The labeled cDNAs were dissolved in TE buffer (10 mM Tris-HCl/1 mM EDTA, pH 8.0), and the solution was dropped on the DNA chip containing the whole genes of yeast (DNA Chip Research Inc. Japan) so that the cDNAs were hybridized on the DNA chip at 65° C. for over 12 hours. The fluoresces intensity of the DNA chip was read with a scanner, and the ratio relative to the fluorescence intensity resulting from the absence of chemical substance was estimated as the following, which is shown in Tables 1 to 9.
In the Tables, “Intensity” indicated in the rightmost column is a value of the level of expressed mRNA of each gene in control cells as divided by the average level of the expressions of the whole genes. A gene of which mRNA level is lower in control, and is higher in cases of addition of chemical substance, is especially useful in the detection of toxic substances.
Here, when a ratio of an amount of mRNA expressed in the presence of the chemical substance to an amount of mRNA expressed in the absence of the chemical substance is two or more, then it is considered significant.

[Cl][Pb][Cl] [(4), PbCl2]
level of expressed mRNA in the presence of chemical substance / level in the absence of chemical substance (yeast gene YNL058C): 1.7
level of expressed mRNA in the presence of chemical substance / level in the absence of chemical substance (yeast gene YNL063W): 1.4
The level of expressed mRNA in the presence of chemical substance/The level of expressed mRNA in the absence of chemical substance (yeast gene YNL074C): 1.2
The level of expressed mRNA in the presence of chemical substance/The level of expressed mRNA in the absence of chemical substance (yeast gene YNL092W): 1.8
The level of expressed mRNA in the presence of chemical substance/The level of expressed mRNA in the absence of chemical substance (yeast gene YNL115C): 1.4
The level of expressed mRNA in the presence of chemical substance/The level of expressed mRNA in the absence of chemical substance (yeast gene YNL156C): 1.3
level of expressed mRNA in the presence of chemical substance / level in the absence of chemical substance (yeast gene YNL176C): 1.0
level of expressed mRNA in the presence of chemical substance / level in the absence of chemical substance (yeast gene YNL194C): 15.2
level of expressed mRNA in the presence of chemical substance / level in the absence of chemical substance (yeast gene YNL200C): 2.0
The level of expressed mRNA in the presence of chemical substance/The level of expressed mRNA in the absence of chemical substance (yeast gene YNL234W): 1.8
level of expressed mRNA in the presence of chemical substance / level in the absence of chemical substance (yeast gene YNL253W): 1.0
level of expressed mRNA in the presence of chemical substance / level in the absence of chemical substance (yeast gene YNL276C): 0.3
The level of expressed mRNA in the presence of chemical substance/The level of expressed mRNA in the absence of chemical substance (yeast gene YNL281W): 1.4
The level of expressed mRNA in the presence of chemical substance/The level of expressed mRNA in the absence of chemical substance (yeast gene YNL305C): 1.4
level of expressed mRNA in the presence of chemical substance / level in the absence of chemical substance (yeast gene YNR051C): 0.6
The level of expressed mRNA in the presence of chemical substance/The level of expressed mRNA in the absence of chemical substance (yeast gene YNR068C): 2.6
level of expressed mRNA in the presence of chemical substance / level in the absence of chemical substance (yeast gene YOL026C): 1.4
The level of expressed mRNA in the presence of chemical substance/The level of expressed mRNA in the absence of chemical substance (yeast gene YOL032W): 1.3
The level of expressed mRNA in the presence of chemical substance/The level of expressed mRNA in the absence of chemical substance (yeast gene YOL036W): 0.8
The level of expressed mRNA in the presence of chemical substance/The level of expressed mRNA in the absence of chemical substance (yeast gene YOL047C): 2.5
The level of expressed mRNA in the presence of chemical substance/The level of expressed mRNA in the absence of chemical substance (yeast gene YOL071W): 2.0
The level of expressed mRNA in the presence of chemical substance/The level of expressed mRNA in the absence of chemical substance (yeast gene YOL082W): 2.1
The level of expressed mRNA in the presence of chemical substance/The level of expressed mRNA in the absence of chemical substance (yeast gene YOL083W): 2.8
The level of expressed mRNA in the presence of chemical substance/The level of expressed mRNA in the absence of chemical substance (yeast gene YOL117W): 1.4
The level of expressed mRNA in the presence of chemical substance/The level of expressed mRNA in the absence of chemical substance (yeast gene YOL131W): 1.0
The level of expressed mRNA in the presence of chemical substance/The level of expressed mRNA in the absence of chemical substance (yeast gene YOL150C): 0.9
The level of expressed mRNA in the presence of chemical substance/The level of expressed mRNA in the absence of chemical substance (yeast gene YOL162W): 1.4
The level of expressed mRNA in the presence of chemical substance/The level of expressed mRNA in the absence of chemical substance (yeast gene YOR019W): 4.7
level of expressed mRNA in the presence of chemical substance / level in the absence of chemical substance (yeast gene YOR022C): 1.2
level of expressed mRNA in the presence of chemical substance / level in the absence of chemical substance (yeast gene YOR087W): 1.3
level of expressed mRNA in the presence of chemical substance / level in the absence of chemical substance (yeast gene YOR138C): 0.8
The level of expressed mRNA in the presence of chemical substance/The level of expressed mRNA in the absence of chemical substance (yeast gene YOR197W): 1.4
level of expressed mRNA in the presence of chemical substance / level in the absence of chemical substance (yeast gene YOR253W): 1.4
level of expressed mRNA in the presence of chemical substance / level in the absence of chemical substance (yeast gene YOR267C): 0.9
level of expressed mRNA in the presence of chemical substance / level in the absence of chemical substance (yeast gene YOR325W): 0.3
level of expressed mRNA in the presence of chemical substance / level in the absence of chemical substance (yeast gene YPL005W): 1.0
The level of expressed mRNA in the presence of chemical substance/The level of expressed mRNA in the absence of chemical substance (yeast gene YPL087W): 7.3
level of expressed mRNA in the presence of chemical substance / level in the absence of chemical substance (yeast gene YPL150W): 0.9
level of expressed mRNA in the presence of chemical substance / level in the absence of chemical substance (yeast gene YPL152W): 1.8
level of expressed mRNA in the presence of chemical substance / level in the absence of chemical substance (yeast gene YPL168W): 1.4
level of expressed mRNA in the presence of chemical substance / level in the absence of chemical substance (yeast gene YPL180W): 0.6
level of expressed mRNA in the presence of chemical substance / level in the absence of chemical substance (yeast gene YPL188W): 1.0
The level of expressed mRNA in the presence of chemical substance/The level of expressed mRNA in the absence of chemical substance (yeast gene YPL196W): 1.7
The level of expressed mRNA in the presence of chemical substance/The level of expressed mRNA in the absence of chemical substance (yeast gene YPL206C): 1.9
level of expressed mRNA in the presence of chemical substance / level in the absence of chemical substance (yeast gene YPL221W): 1.8
The level of expressed mRNA in the presence of chemical substance/The level of expressed mRNA in the absence of chemical substance (yeast gene YPL222W): 1.3
level of expressed mRNA in the presence of chemical substance / level in the absence of chemical substance (yeast gene YPL225W): 1.6
The level of expressed mRNA in the presence of chemical substance/The level of expressed mRNA in the absence of chemical substance (yeast gene YPR023C): 0.8
level of expressed mRNA in the presence of chemical substance / level in the absence of chemical substance (yeast gene YPR049C): 1.0
level of expressed mRNA in the presence of chemical substance / level in the absence of chemical substance (yeast gene YPR146C): 0.9
level of expressed mRNA in the presence of chemical substance / level in the absence of chemical substance (yeast gene YPR148C): 1.3
The level of expressed mRNA in the presence of chemical substance/The level of expressed mRNA in the absence of chemical substance (yeast gene YPR151C): 4.1
level of expressed mRNA in the presence of chemical substance / level in the absence of chemical substance (yeast gene YPR172W): 1.2
